Key:
IGFBP7 protein = IGFBP7 protein expression (immunoblotting) in rat neonatal cardiomyocytes treated with hypertrophic stimuli; type: cell-based; conditions: vs solvent treated control
Description: In order to investigate where Igfbp7 is localized under stress, immunofluorescent staining were used to visualize Igfbp7 in rNCM 2 and 24 hours post treatment. As shown in FIG. 3(b), Igfbp7 were evenly distributed in untreated control cells. Hypertrophic stimuli not only led to increased Igfbp7 expression, but also led to Igfbp7 being localized to the cell membrane. Co-immunostaining with FM1-43 as shown (FIG. 3(c)), upon isoproterenol treatment, Igfbp7 (red) not only moved to cell membrane region, but also co-localized with FM1-43 labeled membrane bound vesicle (green), indicating Igfbp7 was trapped into the membrane bound vesicles for secretion.
NC represents solvent treated control. FIGS. 3(b) and 3(c) show representative confocal microscopy images. […] IGFBP7 was immunofluoresently stained with Alexa Fluor 555 labeled anti-IGFBP7 antibody.
Whole-cell lysates from tissue and cell samples were prepared on ice with Cell Lysis Buffer (Cell Signaling, 9803) containing a Complete cocktail of proteases inhibitors (Roche Applied Science, 05892791001). Lysates were cleared by centrifugation at 12,000 rpm for 10 min. The supernatants were collected and protein concentrations determined using the Bio-Rad Bradford protein assay (Bio-Rad, 500-0006). 20 μg of protein lysate were separated by Bolt Bis-Tris Plus mini Gel System (ThermoFisher) and electrophoretically transferred to PVDF membranes (Bio-Rad, 162-0177). Membranes were incubated overnight at 4° C. with antibodies reactive to the following proteins: IGFBP7 (Abcam, ab171085, 1:1000), CTGF (Abcam, ab6992, 1:1000), 53BP1 (Santa Cruz Biotechnology, sc-22760, 1:200), p21 (Santa Cruz Biotechnology, sc-397, 1:200), Acetyl-p53 (Lys379) (Cell Signaling, #2570, 1:1000), p53 (1C12) (Cell Signaling, #2524, 1:1000), Phospho-IRS-1 (Ser612) (Cell Signaling, #3203, 1:500), Phospho-IRS-1 (Ser318) (Cell Signaling, #5610, 1:500), IRS-1 (Cell signaling, #3407, 1:500), Phospho-Akt (Ser473) (Cell Signaling, #4060, 1:1000), Phospho-Akt (Thr308) (Cell Signaling, #4056, 1:1000), Akt (pan) (Cell Signaling, #4691, 1:1000), Phospho-Erk1/2 (Thr202/Tyr204) (Cell Signaling, #4307, 1:1000), Erk1/2 (Cell Signaling, #9102, 1:1000), Phospho-GSK-3β (Ser9) (Cell Signaling, #9323, 1:1000), GSK-3β (Cell Signaling, #9315, 1:1000), Phospho-IGF-1 Receptor β ((Thy1135) (Cell Signaling, #3918, 1:500), IGF-1 Receptor β (Cell Signaling, #9750, 1:500). […] The intensity of the chemiluminescence signals were detected by using the ChemiDoc XRS+ System (Bio-Rad, 1708265) and quantified using Image Lab software (version 5.2; Bio-Rad). […]

[1] = system: IGF-1/Insulin induced AKT activation; test: IGF-1/Insulin induced AKT/GSK3β activation (immunoblotting) in human cardiac myocytes; type: cell-based; conditions: HCM with IGFBP7 siRNA, ppp pre-treatment 1 or 10 μM for 1 h, IGF-1 (100 ng/ml) 15 min
Description: Indeed, in FIG. 9, human cardiac myocytes were treated with (−)control siRNA and IGFBP7 siRNA for 48 h, followed by replacement with basic medium (serum and growth factors withdrew) for 4 h. In FIG. 9(a), the cells were then stimulated with IGF1 (100 ng/ml) or Insulin (4 μg/ml) for 15 min, before lyses of the cell for immunoblotting. Representative immunoblotting of phosphor-AKT, total AKT, phosph-GSK3β and total GSK3β are shown. GAPDH was used as loading control. In FIG. 9(b), before adding IGF-1, cells were pre-treated with IGF-1R inhibitor Picropodophyllin (PPP) ppp at 1 or 10 μM for 1 h, and finally stimulated with IGF-1 (100 ng/ml) for 15 min. Representative immunoblotting of phosphor-AKT and total AKT showing reduced AKT activity in IGFBP7 knock down cells is shown. GAPDH was used as loading control. […] GAPDH were used as loading control.
Whole-cell lysates from tissue and cell samples were prepared on ice with Cell Lysis Buffer (Cell Signaling, 9803) containing a Complete cocktail of proteases inhibitors (Roche Applied Science, 05892791001). […] The supernatants were collected and protein concentrations determined using the Bio-Rad Bradford protein assay (Bio-Rad, 500-0006). […] The intensity of the chemiluminescence signals were detected by using the ChemiDoc XRS+ System (Bio-Rad, 1708265) and quantified using Image Lab software (version 5.2; Bio-Rad). […]

[2] = system: IGF-1 Receptor β and Akt phosphorylation; test: IGF-1 receptor-dependent signaling (immunoblotting) in IGFBP7 deficient and WT MEF; type: cell-based; conditions: ppp 1 or 10 μM for 1 h, IGF-1 (100 ng/ml) 15 min
[3] = system: IGF-1/Insulin induced AKT and Gsk3β activation; test: IGF-1/Insulin induced Akt and Gsk3β activation in HCM with internal over-expression of IGFBP7; type: cell-based, human; conditions: HCM transfected with IGFBP7 plasmid, inhibitor 500 nM for 1 h before IGF-1 or Insulin 15 min
[4] = system: IGF-1/Insulin induced AKT and Gsk3β activation; test: Effect of external recombinant IGFBP7 protein on IGF-1/Insulin induced AKT and Gsk3β activation in HCM; type: cell-based, human; conditions: HCM pretreated with recombinant protein for 2 h, then IGF-1 or insulin 15 min
Description: HCM were pretreated with recombinant IGFBP7 protein at indicated concentration for 2 h, followed by IGF-1 or insulin induction for 15 min. Vinculin was used as loading control.
Whole-cell lysates from tissue and cell samples were prepared on ice with Cell Lysis Buffer (Cell Signaling, 9803) containing a Complete cocktail of proteases inhibitors (Roche Applied Science, 05892791001). Lysates were cleared by centrifugation at 12,000 rpm for 10 min. The supernatants were collected and protein concentrations determined using the Bio-Rad Bradford protein assay (Bio-Rad, 500-0006). 20 μg of protein lysate were separated by Bolt Bis-Tris Plus mini Gel System (ThermoFisher) and electrophoretically transferred to PVDF membranes (Bio-Rad, 162-0177). […] The intensity of the chemiluminescence signals were detected by using the ChemiDoc XRS+ System (Bio-Rad, 1708265) and quantified using Image Lab software (version 5.2; Bio-Rad). […]
To generate IGFBP7 expression plasmid, human IGFBP7 CDS with 6× His Epitope tag added to the 3′-end were generated by GeneArt gene synthesis and subcloned into pcDNA3.4 TOPO TA Cloning vector (ThermoFisher) to make plasmid pcDNA3.4-hIGFBP7-6× His. […] Expression of secreted IGFBP7-6× His recombinant protein in culture media was monitored daily by immonoblotting with anti 6× His Epitope Tag antibody (ThermoFisher, MA1-21315). […]

## CNC[C@H](O)c1cccc(O)c1 [phenylephrine]
IGFBP7 protein; phenylephrine 200 nM
  IGFBP7 protein expression: significantly up-regulated

## COc1cc([C@@H]2c3cc4c(cc3[C@H](O)[C@H]3COC(=O)[C@@H]23)OCO4)cc(OC)c1OC [Picropodophyllin, picropodophyllin]
[1]
  AKT activation after IGF-1 stimulation in IGFBP7 knock down cells: further reduced
[2]
  AKT phosphorylation in IGFBP7 deficient MEF: further reduced
  AKT phosphorylation in WT MEF: not in WT MEF
  IGF-1R phosphorylation in IGFBP7 deficient MEF: further reduced

## C[C@@]1(C(=O)Nc2ccc(F)nc2)CCCN1c1nc(Nc2cc(C3CC3)n[nH]2)c2cccn2n1 [BMS-754807]
[3]
  IGF-1/Insulin induced AKT and GSK3β activation increased by internal over-expression of IGFBP7: blocked

## CC(C)NCC(O)c1ccc(O)c(O)c1 (stereo not shown) [isoproterenol]
IGFBP7 protein; isoproterenol 100 nM
  IGFBP7 protein expression: significantly up-regulated

## insulin
IGFBP7 protein; insulin 4 μg/ml
  IGFBP7 protein expression: significantly up-regulated

## angiotensin II (DRVYIHPF; Angiotensin-2; UniProt P01019 25-32, looked up) [hypertrophic stimulus]
IGFBP7 protein; 100 nM angiotensin II
  IGFBP7 protein expression: significantly up-regulated

B1: recombinant IGFBP7 protein: recombinant human IGFBP7 protein with 6× His tag expressed in Expi293F cells (protein, UniProt Q16270 27-282, looked up)
Insulin-like growth …: SSSDTCGPCEPASCPPLPPLGCLLGETRDACGCCPMCARGEGEPCGGGGAGRGYCAPGMECVKSRKRRKGKAGAAAGGPGVSGVCVCKSRYPVCGSDGTTYPSGCQLRAASQRAESRGEKAITQVSKGTCEQGPSIVTPPKDIWNVTGAQVYLSCEVIGIPTPVLIWNKVKRGHYGVQRTELLPGDRDNLAIQTRGGPEKHEVTGWVLVSPLSKEDAGEYECHASNSQGQASASAKITVVDALHEIPVKKGEGAEL
modifications: 6xHis tag
notes: recombinant human IGFBP7 protein with 6× His tag expressed in Expi293F cells
[4]
  Effect on IGF-1/Insulin induced AKT and Gsk3β activation: no observed effect

From patent US10865412B2, “Therapeutics targeting IGFBP7 for the treatment or prevention of heart failure and metabolic diseases” (Ottawa Heart Institute Research Corporation, priority 2016, dated 2020)
